Measured values published in the supplement of paper PMC10307832.

What follows are cell lines tested with CC1(COc2ccc3c(c2)ncn3-c2ccc3cccc(N4CCC(N)CC4)c3n2)COC1 [Crenolanib] + COc1cccc2cc(-c3nc([C@H]4CC[C@H](C(=O)O)CC4)n4ncnc(N)c34)[nH]c12 [OSI-027] (partner 0.5 µM) (assay: relative viability (nuclei count vs DMSO), 5 days (fraction); higher = more cells survive). Settings: first compound 1 µM.
Procedure, shortened: (§1)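 After 5 days of treatment, lung cancer cells in 1536-well plates were fixed and stained in a single step (final 0.05% Triton X-100, 1% formaldehyde, 1 ug/ml Hoechst) and their nuclei counted on 4× images. Treatment had been applied by pin tool the day after seeding as one drug alone or as a fixed anchor-drug dose with five library-drug doses (not always all listed) in √10 steps. Relative viability is the nuclei count of treated wells divided by that of vehicle wells, and values are medians of duplicate plates.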

Cell Line	relative viability
NCI-H1563	0.748

What follows are cell lines tested with CC1(COc2ccc3c(c2)ncn3-c2ccc3cccc(N4CCC(N)CC4)c3n2)COC1 [Crenolanib] + N=C(N)NC(=N)NCCc1ccccc1 [Phenformin] (partner 250 µM) in the same assay as above. Settings: first compound 0.01 µM.
Procedure, shortened: as §1

Cell Line	relative viability
NCI-H522	0.706
NCI-H1623	0.592
NCI-H838	0.562
NCI-H1651	0.331
NCI-H1734	0.38
NCI-H2009	0.497
EPLC-272H	0.356
PC-14	0.628
LCLC-97TM1	0.476
NCI-H596	0.691
NCI-H2228	0.313
EMC-BAC-2	0.629
NCI-H2087	0.466
HCC-44	0.267
A549	0.193
NCI-H1563	0.615

Same assay, conditions: first compound 0.03162 µM

Cell Line	relative viability
NCI-H522	0.641
NCI-H1623	0.595
NCI-H838	0.586
NCI-H1651	0.36
NCI-H1734	0.405
NCI-H2009	0.488
EPLC-272H	0.331
PC-14	0.46
LCLC-97TM1	0.477
NCI-H596	0.806
NCI-H2228	0.487
EMC-BAC-2	0.497
NCI-H2087	0.488
HCC-44	0.207
A549	0.185
NCI-H1563	0.66

Same assay, conditions: first compound 0.1 µM

Cell Line	relative viability
NCI-H522	0.756
NCI-H1623	0.543
NCI-H838	0.632
NCI-H1651	0.35
NCI-H1734	0.387
NCI-H2009	0.46
EPLC-272H	0.224
PC-14	0.544
LCLC-97TM1	0.457
NCI-H596	0.72
NCI-H2228	0.324
EMC-BAC-2	0.589
NCI-H2087	0.434
HCC-44	0.188
A549	0.165
NCI-H1563	0.699

Same assay, conditions: first compound 0.3162 µM

Cell Line	relative viability
NCI-H522	0.656
NCI-H1623	0.585
NCI-H838	0.539
NCI-H1651	0.336
NCI-H1734	0.421
NCI-H2009	0.4
EPLC-272H	0.375
PC-14	0.473
LCLC-97TM1	0.455
NCI-H596	0.733
NCI-H2228	0.388
EMC-BAC-2	0.51
NCI-H2087	0.524
HCC-44	0.184
A549	0.103
NCI-H1563	0.607

Same assay, conditions: first compound 1 µM

Cell Line	relative viability
NCI-H522	0.675
NCI-H1623	0.553
NCI-H838	0.527
NCI-H1651	0.308
NCI-H1734	0.39
NCI-H2009	0.408
EPLC-272H	0.382
PC-14	0.314
LCLC-97TM1	0.455
NCI-H596	0.737
NCI-H2228	0.317
EMC-BAC-2	0.505
NCI-H2087	0.471
HCC-44	0.169
A549	0.145
NCI-H1563	0.672

Each cell line was assayed with O=C1NC(=O)[C@@H](c2cn3c4c(cccc24)CCC3)[C@@H]1c1c[nH]c2ccccc12 [Tivantinib] + N=C(N)NC(=N)NCCc1ccccc1 [Phenformin] (partner 250 µM) in the same assay as above. Settings: first compound 0.01 µM.
Procedure, shortened: as §1

Cell Line	relative viability
NCI-H522	0.604
NCI-H1623	0.574
NCI-H838	0.705
NCI-H1651	0.348
NCI-H1734	0.401
NCI-H2009	0.492
EPLC-272H	0.248
PC-14	0.516
LCLC-97TM1	0.456
NCI-H596	0.665
EMC-BAC-2	0.566
NCI-H2087	0.446
HCC-44	0.325
A549	0.158
NCI-H1563	0.581

Same assay, conditions: first compound 0.03162 µM

Cell Line	relative viability
NCI-H522	0.646
NCI-H1623	0.547
NCI-H838	0.554
NCI-H1651	0.287
NCI-H1734	0.346
NCI-H2009	0.503
EPLC-272H	0.294
PC-14	0.454
LCLC-97TM1	0.496
NCI-H596	0.651
NCI-H2228	0.296
EMC-BAC-2	0.453
NCI-H2087	0.456
HCC-44	0.171
A549	0.169
NCI-H1563	0.636

Same assay, conditions: first compound 0.1 µM

Cell Line	relative viability
NCI-H522	0.636
NCI-H1623	0.49
NCI-H838	0.464
NCI-H1651	0.318
NCI-H1734	0.386
NCI-H2009	0.481
EPLC-272H	0.296
PC-14	0.611
LCLC-97TM1	0.453
NCI-H596	0.715
NCI-H2228	0.283
EMC-BAC-2	0.528
NCI-H2087	0.473
HCC-44	0.225
A549	0.146
NCI-H1563	0.631

Same assay, conditions: first compound 0.3162 µM

Cell Line	relative viability
NCI-H522	0.644
NCI-H838	0.514
NCI-H1651	0.376
NCI-H1734	0.451
NCI-H2009	0.528
EPLC-272H	0.0595
PC-14	0.341
LCLC-97TM1	0.388
NCI-H596	0.771
NCI-H2228	0.223
EMC-BAC-2	0.528
NCI-H2087	0.472
HCC-44	0.215
A549	0.263
NCI-H1563	0.63
